How the values were obtained:
plasma LH = test: Intranasal kisspeptin-54, plasma LH in adult C57BL/6J male mice; assay type: in vivo, mouse; details: for Peak plasma LH level / Integrated LH response, AUC: mean ± SEM; for Peak plasma LH level, mean difference vs placebo: two-way ANOVA; for Integrated LH response, AUC: sampling over 70 min
Procedure: Saline (placebo) or kisspeptin-54 were intranasally administered using a customised and unsharpened 2 mm long and 0.3 mm wide hypodermic needle (BD PrecisionGlide™; 30G; ref. 305106). Male mice were restrained and a single volume of 30 μL of the solution was delivered in one randomly chosen nostril with either 0.9% saline or different concentrations of kisspeptin-54 (1, 3, 12.8, 30, or 50 nM; equivalent to 0.001–0.05 nmol/kg). The protocol involved N = 5 mice per group, except concentrations 12.8 nM where N = 6 and 30 nM where N = 7. […] LH levels were assessed using a tail-tip serial blood sampling as previously reported.[64]^,[65] Briefly, samples containing 4 μL of whole blood were collected every 10 min over a 70-min-long period from each animal. The first sampling point was taken as baseline LH level (−5 min), and saline or kisspeptin-54 were administered at timepoint 0 min. Whole blood was collected into Eppendorf tubes pre-loaded with 50 μL of 0.1 M phosphate-buffered saline (PBS)-0.05% Tween, thoroughly mixed, and snap-frozen with dry ice and stored at −80 °C.
LH levels were measured using an established in-house and ultrasensitive mouse LH ELISA method as previously validated.[66] A primary coating antibody (bovine LHβ subunit, 518B7; L. Sibley; University of California, UC Davis, RRID AB_2756886) was used at a 1:1000 dilution in combination with a detection primary antibody (rabbit LH antiserum, AFP240580Rb, RRID AB_2665533; NIDDK- NHPP) used at 1:10,000 dilution, and a secondary horseradish peroxidase-conjugated antibody (goat anti-rabbit; Vector Laboratories, PI-1000, RRID AB_2336198) used at 1:10,000 dilution. The assay standard curve used a mouse LH-RP (AFP5306A, A. F. Parlow, National Hormone and Peptide Program; supplied by Golden West BioSolutions, California, USA; catalogue # TLIA1053.03). The assay sensitivity of this LH ELISA was 0.04 ng/mL, intra-assay coefficient of variation 4.1%, and inter-assay coefficient of variation 7.3%.
Statistical analyses were performed using GraphPad Prism (version 9.4.1). Data are presented as mean ± SEM. Normality of the data was determined using the Shapiro–Wilk test. The analysis considered increment in LH levels when average post-administration values were above significance (P < 0.05) compared to basal levels (−5 min) using repeated measures two-way ANOVA with Fishers least significant difference (LSD) test. Integrated LH response to kisspeptin-54 administration as indicated using the area under the curve (AUC) analysis when all peaks were above baseline values. The difference in AUC between groups was compared by one-way ANOVA with Fisher’s LSD test. In all cases, P < 0.05 was considered statistically significant.

[1] = Kisspeptin-54 powder particle size and shape analysis (Morphologi 4); assay type: physicochemical
Procedure: Particle size and shape analysis of the kisspeptin-54 powder was performed using a Morphologi 4 (Malvern Instruments, Worcestershire, UK). Particles were readily dispersed using the dispersion unit at low energy level. Bright field illumination was used for microscopic visualisation of the particles with the light intensity calibrated to 70%. The samples were scanned using the 20× objective lens over a scan area of 4.5 mm by 4.5 mm with a trash size of 10 pixels.

Kisspeptin-54
LH AUC, mean difference vs kisspeptin 1 nM (plasma LH; intranasal 3 nM vs 1 nM): 3.6 ng·h/mL
Time of peak LH level after intranasal administration (plasma LH; intranasal 12.8 nM): 25 min
LH AUC, mean difference vs kisspeptin 1 nM (plasma LH; intranasal 12.8 nM vs 1 nM): 22.7 ng·h/mL
LH AUC, mean difference vs kisspeptin 3 nM (plasma LH; intranasal 12.8 nM vs 3 nM): 19.1 ng·h/mL
LH AUC, mean difference vs placebo (plasma LH; intranasal 12.8 nM vs placebo): 17.2 ng·h/mL
Peak plasma LH level (plasma LH; intranasal 12.8 nM, at 25 min, N = 6): 1.9 ± 0.4 ng/mL
Peak plasma LH level, mean difference vs placebo (plasma LH; intranasal 12.8 nM, at 25 min): 1.1 ng/mL
Time of peak LH level after intranasal administration (plasma LH; intranasal 30 nM): 25 min
LH AUC, mean difference vs kisspeptin 1 nM (plasma LH; intranasal 30 nM vs 1 nM): 74.2 ng·h/mL
LH AUC, mean difference vs kisspeptin 3 nM (plasma LH; intranasal 30 nM vs 3 nM): 70.7 ng·h/mL
LH AUC, mean difference vs kisspeptin 12.8 nM (plasma LH; intranasal 30 nM vs 12.8 nM): 51.6 ng·h/mL
LH AUC, mean difference vs placebo (plasma LH; intranasal 30 nM vs placebo): 68.7 ng·h/mL
Peak plasma LH level (plasma LH; intranasal 30 nM, at 25 min, N = 7): 3.6 ± 0.4 ng/mL
Peak plasma LH level, mean difference vs placebo (plasma LH; intranasal 30 nM, at 25 min): 2.8 ng/mL
Time of peak LH level after intranasal administration (plasma LH; intranasal 50 nM): 15 min
LH AUC, mean difference vs kisspeptin 1 nM (plasma LH; intranasal 50 nM vs 1 nM): 92.8 ng·h/mL
LH AUC, mean difference vs kisspeptin 3 nM (plasma LH; intranasal 50 nM vs 3 nM): 89.3 ng·h/mL
LH AUC, mean difference vs kisspeptin 12.8 nM (plasma LH; intranasal 50 nM vs 12.8 nM): 70.2 ng·h/mL
LH AUC, mean difference vs kisspeptin 30 nM (plasma LH; intranasal 50 nM vs 30 nM): 18.6 ng·h/mL
LH AUC, mean difference vs placebo (plasma LH; intranasal 50 nM vs placebo): 87.3 ng·h/mL
Peak plasma LH level (plasma LH; intranasal 50 nM, at 15 min, N = 5): 4.0 ± 1.0 ng/mL
Peak plasma LH level, mean difference vs placebo (plasma LH; intranasal 50 nM, at 15 min): 2.9 ng/mL
Integrated LH response, AUC (plasma LH; intranasal 30 μL of 1 nM, N = 5): 75.5 ± 6.3 ng·h/mL
Integrated LH response, AUC (plasma LH; intranasal 30 μL of 3 nM, N = 5): 79.1 ± 5.8 ng·h/mL
Integrated LH response, AUC (plasma LH; intranasal 30 μL of 12.8 nM, N = 6): 98.2 ± 15.5 ng·h/mL
Integrated LH response, AUC (plasma LH; intranasal 30 μL of 30 nM, N = 7): 149.7 ± 13.3 ng·h/mL
Integrated LH response, AUC (plasma LH; intranasal 30 μL of 50 nM, N = 5): 168.3 ± 38.5 ng·h/mL
Adverse effects leading to pain, distress, or illness (plasma LH; intranasal, first 72-h follow-up period): did not observe any adverse effects
Particle shape ([1]; Morphologi 4): irregular-shaped particles
Proportion of particles in the 20–50 μm range ([1]; Morphologi 4): over 40%
Circular equivalent diameter range of powder particles ([1]; Morphologi 4, N = 55,421 particles): 0.5–113 μm
Powder particle size range (particles largely within) ([1]; Morphologi 4 static automated imaging): 10–110 μm

Source: PMC12018048, “Intranasal kisspeptin administration rapidly stimulates gonadotropin release in humans” (eBioMedicine, 2025)
